Test results published in patent US7179934B2, “Amino acids with affinity for the α2δ-protein” (Warner-Lambert Company LLC, priority 2003, dated 2007).

Test system: α2δ-subunit derived from porcine brain tissue
Assay: radioligand binding assay using [3H]-gabapentin
Conditions: [3H]-gabapentin radioligand
Excerpt: The ability of compounds of the present invention to bind to the α2δ-subunit of a calcium channel can be determined using the following binding assay.
The radioligand binding assay using [^3H]-gabapentin and the α2δ-subunit derived from porcine brain tissue was used. See Nicolas S. Gee et al., “The novel anticonvulsant drug, gabapentin (Neurontin), binds to the α2δ subunit of a calcium channel,” J. Biol. Chem. 271 (10):5768–76 (1996). Compounds of the invention bind with nanomolar to micromolar affinity for the α2δ protein.

CCCCC(CC)CCC(CN)C(=O)O (stereo not shown) [2-aminomethyl-5-ethyl-nonanoic acid]
affinity to the α2δ protein: 75 nM
